Measurements as given in patent EP0298474B1, “Novel calcitonin derivative and salt thereof” (MITSUBISHI PETROCHEMICAL CO., LTD., priority 1987, dated 1992).
Positions of bridges follow the written chain, without caps; N, C: chain ends. Residues, ends and D or L forms follow the SMILES beside them.

Legend:
[1] = biological activity assay according to the method of Japanese Provisional Patent Publication No. 123500/1985; type: in vivo
Experimental: The crude (Oct¹, Cys(CA)⁷)-CCT obtained was dissolved in a 1 M acetic acid (5 mg/ml) and purified by the reverse phase high performance liquid chromatography. Chemcopack ODS-H (trade name, ø: 10 mm x 250 mm) column produced by Chemco Co. was used, with the eluents employed being water (100) - 10 % TFA (1) for the eluent A and water (40) -acetonitrile (60) - 10 % TFA (1) for the eluent B, and the elution was effected under the linear concentration gradient from the eluent A to the eluent B. Here, the numerals within bracckets represent volume ratios. The fraction corresponding to (Oct¹, Cys(CA)⁷)-CCT was collected and lyophilized to obtain 2.8 mg of white powder. The biological activity of the white powder obtained was assayed according to the method as described in Japanese Provisional Patent Publication No. 123500/1985. […]

[2] = stability test in solution (heat treatment, remaining peak area by reverse phase HPLC); type: physicochemical; details: 0.1 M sodium citrate buffer (pH 6.0), 10 µg/ml, sealed tube at 80 °C for 24 hours; stated in words relative to Example 1
Experimental: The (Oct¹, Cys(CA)⁷)-CCT was dissolved in 0.1 M sodium citrate buffer (pH 6.0) to a concentration of 10 µg/ml. One ml of this solution was left to stand in a sealed tube at 80 °C for 24 hours. By analysis according to the reverse phase HPLC by use of the measurement conditions (1), the eluted peak area A of the remaining (Oct¹, Cys(CA)⁷)-CCT was determined. Similarly, the eluted peak area B of the (Oct¹, Cys(CA)⁷)-CCT in the sample solution not subjected to the heat treatment was determined, and the ratio of A to B (%) was defined as the index.

[3] = method of Japanese Provisional Patent Publication No. 123500/1985
[4] = stated in words relative to (Oct¹, Cys(CA)⁷)-CCT of Example 1

| Compound | biological activity [1, 3] | biological activity [1, 4] | stability (ratio of A to B (%), remaining peak area) [2] |
| --- | --- | --- | --- |
| CC(C)C[C@H](NC(=O)[C@H](CCCCN)NC(=O)CNC(=O)[C@H](CC(C)C)NC(=O)[C@@H](NC(=O)[C@@H]1CSSC[C@H](N)C(=O)N[C@@H](C)C(=O)N[C@@H](CO)C(=O)N[C@@H](CC(C)C)C(=O)N[C@@H](CO)C(=O)N[C@@H]([C@@H](C)O)C(=O)N1)C(C)C)C(=O)N[C@@H](CO)C(=O)N[C@@H](CCC(N)=O)C(=O)N[C@@H](CCC(=O)O)C(=O)N[C@@H](CC(C)C)C(=O)N[C@@H](Cc1c[nH]cn1)C(=O)N[C@@H](CCCCN)C(=O)N[C@@H](CC(C)C)C(=O)N[C@@H](CCC(N)=O)C(=O)N[C@H](C(=O)N[C@@H](Cc1ccc(O)cc1)C(=O)N1CCC[C@H]1C(=O)N[C@@H](CCCNC(=N)N)C(=O)N[C@H](C(=O)N[C@@H](CC(=O)O)C(=O)N[C@H](C(=O)NCC(=O)N[C@@H](C)C(=O)NCC(=O)N[C@H](C(=O)N1CCC[C@H]1C(N)=O)[C@@H](C)O)C(C)C)[C@@H](C)O)[C@@H](C)O [natural type CCT, reference compound] (H-CASLSTCVLGKLSQELHKLQTYPRTDVGAGTP-NH2; disulfide 1-7) | 4500 MRC U/mg | – | – |
| (Oct¹, Cys⁷)-CCT | – | substantially equal to those of (Oct¹, Cys(CA)⁷)-CCT of Example 1 | substantially equal to those of (Oct¹, Cys(CA)⁷)-CCT of Example 1 |
| (pGlu¹, Cys(CA)⁷)-CCT | – | substantially equal to those of (Oct¹, Cys(CA)⁷)-CCT of Example 1 | substantially equal to those of (Oct¹, Cys(CA)⁷)-CCT of Example 1 |
| (Oct¹, Cys(Acm)⁷)-CCT | 5500 MRC U/mg | – | – |
| (Oct¹, Thr³, Cys(CA)⁷)-CCT | 7800 MRC U/mg | – | – |
| (Oct¹, Cys(CA)⁷)-CCT | 5400 MRC U/mg | equal to that obtained in Example 1 | – |
| (Oct¹, Cys(Acm)⁷)-ECT | 5400 MRC U/mg | – | – |
| (Oct¹, Ala³, Cys(CA)⁷)-CCT | 6100 MRC U/mg | – | – |
